Paper PMC3111455, “Matrix Metalloproteinase-8 Mediates the Unfavorable Systemic Impact of Local Irradiation on Pharmacokinetics of Anti-Cancer Drug 5-Fluorouracil” (PLoS ONE, 2011)
Where two headings read alike, the source gives them in different places.

How the values were obtained:
[1] = Plasma pharmacokinetics of 5-FU in rats with or without MMP-8 inhibitor before whole pelvic irradiation 2 Gy; format: in vivo, Sprague-Dawley rats; conditions: for AUC / Cmax / MRT / clearance / half-life / Vd: Sprague-Dawley, rat, iv, 100 mg/kg, 5-FU 100 mg/kg i.v.; for Vd: read-out: Vss
Procedure: (§1) Twenty hours after RT, the rats were administered 100 mg/kg of 5-FU in 2 mL of normal saline by intravenous infusion into the femoral vein over a 2-min period. A 150-µL blood sample was withdrawn from the jugular vein with a fraction collector according to a programmed schedule at 5, 15, 30, 45, and 60 min, and 1.5, 2, 2.5, and 3 h following drug administration. The blood samples were immediately centrifuged at 3300×g for 10 min. The resulting plasma (50 µL) was added to 1 mL of ethyl acetate in a clean tube, vortexed for 5 min, and centrifuged at 5900×g for 10 min. After centrifugation, the upper organic layer containing the ethyl acetate was transferred to a new tube and evaporated to dryness under flowing nitrogen. The dried residue was reconstituted with 50 µL of Milli-Q water (Millipore). A 20-µL aliquot of the solution was injected to the high performance liquid chromatography-ultraviolet (HPLC-UV) detection system.
(§2) Chromatographic analysis was performed on a Model LC-20AT HPLC system (Shimadzu, Tokyo, Japan) equipped with a Model SPD-20A wavelength UV detector, SIL-20AC autosampler, and an LC Solution data processing system. A LiChroCART RP-18e column (Purospher, 250 mm, 5 µm, Merck, Darmstadt, Germany) with a LiChroCART 4-4 guard column was used for separation. The mobile phase comprised […] potassium phosphate-methanol (99∶1, v/v, pH 4.5 adjusted by 85% phosphoric acid), and the flow rate of the mobile phase was 1 ml/min. The detection wavelength was set at 266 nm. Under these conditions, the retention time of 5-FU was 5.4 min. […] Good linearity was achieved over the range of 0.01–5 µg/ml, with all coefficients of correlation greater than 0.998. All samples were freshly prepared, including the standard solutions, from the same stock solution (5 mg/mL). The 0.01-µg/mL limit of quantification was defined the lowest concentration on the calibration curve that could be measured routinely with acceptable bias and relative SD. The overall mean precision, defined by the relative SD, ranged from 0.2% to 11.0%. Analytical accuracy was expressed as the percentage difference of the mean observed values compared to known concentrations varying from −10.0% to 14.0%. The recovery results for concentrations of 0.1–10 µg/mL were 92.0%–94.0%
MMP-8 inhibitor I (Calbiochem, La Jolla, CA) was administered to the rats to examine whether or not RT modulation of 5-FU pharmacokinetic parameters could be blocked. Briefly, MMP-8 inhibitor I was dissolved in PEG400/ethanol [4∶1 (v/v)] solution, yielding a final concentrations of 5 mg/mL. Two hours before irradiation, 10 mg/kg of MMP-8 inhibitor I was infused into the rat's tail vein over a 2-min period. After that, the rats were anesthetized with urethane 1 g/ml and α-chloralose 0.1 g/ml (1 ml/ kg by intraperitoneal injection), and were immobilized on a board to undergo computed tomography for simulation of the whole pelvic field and received irradiation, as described previously. The experimental animals were randomized to control without PEG400/ethanol [4∶1 (v/v)] solution (0 Gy), control with solvent (0 Gy), whole pelvic irradiation (2 Gy) with solvent and whole pelvic irradiation (2 Gy) with MMP-8 inhibitor and solvent groups, respectively. After RT sham RT 20 hrs, all rats received 5-FU (100 mg/kg) injections and the pharmacokinetic parameters of 5-FU were analyzed. Each group's data was collected from four rats.
(§3) Pharmacokinetic parameters including the AUC for concentration versus time, terminal elimination phase t1/2, Cmax, MRT, total plasma clearance and Vss were calculated using the pharmacokinetics calculation software WinNonlin Standard Edition, Version 1.1 (Scientific Consulting, Apex, NC, USA) using a compartmental method.

[2] = test system: HepG2; assay: Intracellular 5-FU levels with or without recombinant MMP-8 by HPLC; format: cell-based, Human; conditions: 10 µg/mL recombinant MMP-8 plus 50 µM 5-FU vs 50 µM 5-FU alone, up to 60 min
Procedure: as §2, with “92.0%–94.0% […]” for “92.0%–94.0%”

[3] = test system: HepG2; assay: Viability/toxicity of 5-FU-treated HepG2 with or without recombinant MMP-8; format: cell-based, Human; conditions: 5-FU-treated with or without recombinant MMP-8, data not shown
[4] = Plasma pharmacokinetics of 5-FU in rats after whole pelvic irradiation; format: in vivo, Sprague-Dawley rats; conditions: for AUC / Cmax / MRT / clearance / half-life / Vd: Sprague-Dawley, rat, iv, 100 mg/kg, 5-FU 100 mg/kg i.v.; for Vd: read-out: Vss
Procedure: The rats were anesthetized with urethane 1 g/ml and α-chloralose 0.1 g/ml (1 ml/kg by intraperitoneal injection), and were immobilized on a board when undergoing computed tomography for simulation of the whole pelvic field. The cranial margin was set at the top of the bilateral iliac crests for the whole pelvic field (Fig. 7). Conventional radiotherapy was used to deliver the radiation dose via the anterior-posterior (AP) and PA portals. The experimental animals were randomized to the control, 2-Gy alone, 5-FU alone, 0.5-Gy followed by 5-FU, and 2-Gy followed by 5-FU groups. Each group's data was collected from six rats.
as §1, §2, §3

[5] = Bile pharmacokinetics of 5-FU in rats after whole pelvic irradiation; format: in vivo, Sprague-Dawley rats; conditions: for AUC / Cmax / MRT / clearance / half-life / Vd: Sprague-Dawley, rat, iv, 100 mg/kg, 5-FU 100 mg/kg i.v.; for Vd: read-out: Vss
[6] = test system: alanine aminotransferase (ALT); assay: Evaluation of hepatic function (plasma ALT); format: in vivo; conditions: rats
Procedure: The plasma levels of alanine aminotransferase (ALT) were measured to check the influence of different modalities for hepatic function by a standard colorimetric method using a Synchron LX20 spectrophotometer (Beckman Coulter) and manufacturer-supplied reagents.

[7] = parameters: method as in PMID 9188061; conditions: rats, mean ± SD, cited from earlier work
[8] = cited from earlier work
[9] = MMP-8 inhibitor 10 mg/kg 2 h before 2 Gy
[10] = whole pelvic irradiation 0.5 Gy
[11] = plasma, controls without solvent
[12] = plasma, whole pelvic irradiation 2 Gy with solvent
[13] = plasma, plasma, whole pelvic irradiation 2 Gy with solvent and MMP-8 inhibitor (10 mg/kg, 2 h before irradiation)

Molecule: COc1ccc(S(=O)(=O)N2Cc3ccccc3C[C@@H]2C(=O)NO)cc1 [MMP-8 inhibitor]
- effect on the decreased MRT of 5-FU caused by irradiation [1, 9]: completely reversed
- effect on the increased clearance value of 5-FU caused by irradiation [1, 9]: completely reversed
- effect of pretreatment on the decline in AUC of 5-FU caused by pelvic irradiation ([1]; MMP-8 inhibitor 10 mg/kg 2 h before 2 Gy, P<0.05): significantly attenuated
- effect of MMP-8 inhibitor alone on the AUC of 5-FU ([1]; plasma, in comparison with the controls): Neither the MMP-8 inhibitor alone nor its vehicle had a significant effect

Molecule: recombinant MMP-8: recombinant matrix metalloproteinase-8, 10 µg/mL added to HepG2 cells
- effect on the AUC of intracellular 5-FU [2]: no significant effect
- toxicity to HepG2 [3]: no significant toxicity

Molecule: O=c1[nH]cc(F)c(=O)[nH]1 [5-FU, 5-fluorouracil]
- reduction of the AUC of 5-FU by pelvic irradiation ([4]; 0.5 Gy vs non-irradiated controls, P = 0.019): 17.6%
- reduction of the AUC of 5-FU by pelvic irradiation ([4]; 2 Gy vs non-irradiated controls, P = 0.008): 21.5%
- AUC ([4]; controls 0 Gy): 78800 ng·h/mL
- Cmax ([4]; controls 0 Gy): 164 ± 36 µg/mL
- MRT ([4]; controls 0 Gy): 36.5 min
- clearance ([4]; controls 0 Gy): 21.3 ± 1.9 mL/min/kg
- half-life ([4]; controls 0 Gy): 34.7 ± 9.6 min
- Vd ([4]; controls 0 Gy): 0.778 ± 0.088 L/kg
- AUC [4, 10]: 64900 ng·h/mL
- Cmax [4, 10]: 167 ± 23 µg/mL
- MRT [4, 10]: 30.9 min
- clearance [4, 10]: 25.8 ± 2 mL/min/kg
- half-life [4, 10]: 24.7 ± 3.5 min
- Vd [4, 10]: 0.775 ± 0.116 L/kg
- AUC ([4]; whole pelvic irradiation 2 Gy): 61900 ng·h/mL
- Cmax ([4]; whole pelvic irradiation 2 Gy): 179 ± 19 µg/mL
- MRT ([4]; whole pelvic irradiation 2 Gy): 25 min
- clearance ([4]; whole pelvic irradiation 2 Gy): 27.3 ± 3.6 mL/min/kg
- half-life ([4]; whole pelvic irradiation 2 Gy): 29.9 ± 7.1 min
- Vd ([4]; whole pelvic irradiation 2 Gy): 0.67 ± 0.06 L/kg
- increase of the AUC of 5-FU in bile by pelvic irradiation ([5]; 0.5 Gy vs non-irradiated controls): 25.1%
- increase of the AUC of 5-FU in bile by pelvic irradiation ([5]; 2 Gy vs non-irradiated controls): 30.6%
- AUC ([5]; controls 0 Gy): 19700 ng·h/mL
- Cmax ([5]; controls 0 Gy): 129 ± 22 µg/mL
- MRT ([5]; controls 0 Gy): 8.9 min
- clearance ([5]; controls 0 Gy): 84.8 ± 3.6 mL/min/kg
- half-life ([5]; controls 0 Gy): 9.2 ± 0.4 min
- Vd ([5]; controls 0 Gy): 0.754 ± 0.102 L/kg
- AUC [5, 10]: 24600 ng·h/mL
- Cmax [5, 10]: 120 ± 14 µg/mL
- MRT [5, 10]: 11.1 min
- clearance [5, 10]: 67.9 ± 3.6 mL/min/kg
- half-life [5, 10]: 10.3 ± 0.5 min
- Vd [5, 10]: 0.753 ± 0.025 L/kg
- AUC ([5]; whole pelvic irradiation 2 Gy): 25700 ng·h/mL
- Cmax ([5]; whole pelvic irradiation 2 Gy): 93 ± 6 µg/mL
- MRT ([5]; whole pelvic irradiation 2 Gy): 13.9 min
- clearance ([5]; whole pelvic irradiation 2 Gy): 65.1 ± 4.3 mL/min/kg
- half-life ([5]; whole pelvic irradiation 2 Gy): 12.9 ± 2.8 min
- Vd ([5]; whole pelvic irradiation 2 Gy): 0.903 ± 0.055 L/kg
- AUC ([1]; plasma, controls with solvent): 71400 ng·h/mL
- Cmax ([1]; plasma, controls with solvent): 146 ± 35 µg/mL
- MRT ([1]; plasma, controls with solvent): 36 min
- clearance ([1]; plasma, controls with solvent): 23.4 ± 0.8 mL/min/kg
- half-life ([1]; plasma, controls with solvent): 27.8 ± 3 min
- AUC [1, 11]: 71400 ng·h/mL
- Cmax [1, 11]: 151 ± 17 µg/mL
- MRT [1, 11]: 37 min
- clearance [1, 11]: 23.4 ± 1.1 mL/min/kg
- half-life [1, 11]: 33.3 ± 16.1 min
- AUC [1, 12]: 55100 ng·h/mL
- Cmax [1, 12]: 132 ± 51 µg/mL
- MRT [1, 12]: 26 min
- clearance [1, 12]: 30.3 ± 0.3 mL/min/kg
- half-life [1, 12]: 31 ± 8.8 min
- Vd ([1]; plasma, plasma, controls with solvent): 0.836 ± 0.097 L/kg
- Vd ([1]; plasma, plasma, controls without solvent): 0.859 ± 0.022 L/kg
- AUC [1, 13]: 66000 ng·h/mL
- Cmax [1, 13]: 122 ± 29 µg/mL
- MRT [1, 13]: 36 min
- clearance [1, 13]: 25.4 ± 2.8 mL/min/kg
- half-life [1, 13]: 32.3 ± 9.9 min
- Vd [1, 13]: 0.911 ± 0.127 L/kg
- Vd ([1]; plasma, plasma, whole pelvic irradiation 2 Gy with solvent): 0.784 ± 0.11 L/kg
- alanine aminotransferase (ALT) levels vs control group ([6]; 0.5 Gy followed by 5-FU): no significant difference
- alanine aminotransferase (ALT) levels vs control group ([6]; 2 Gy followed by 5-FU): no significant difference
- alanine aminotransferase (ALT) levels vs control group ([6]; 5-FU-treated only): no significant difference
- dose-normalized area under the curve (AUC) ([7]; 10 mg/kg): 0.43 ± 0.11 mg·h/L/mg
- dose-normalized area under the curve (AUC) ([7]; 50 mg/kg): 0.50 ± 0.16 mg·h/L/mg
- dose-normalized area under the curve (AUC) ([7]; 100 mg/kg): 1.14 ± 0.55 mg·h/L/mg
- fraction catabolyzed by the liver via the dihydropyrimidine dehydrogenase (DPD) pathway [8]: About 80%
